One compound from patent publication US20100291706A1, “DYE CONJUGATES AND METHODS OF USE” (Millipore Corporation, priority 2009, published 2010) can be followed below.

The nature of the data set: Absorbance spectra of cyanine dye stocks. In kind it is physicochemical. Conditions: free dye. The protocol: Phycoerythrin conjugates: NGyS, NGy7 and Gy5 dye stocks are resuspended, their absorbances determined and their concentrations calculated. Phycoerythrin (PE) aliquots (2 nmoles) are treated in 0.5 M sodium carbonate pH 9.0 for 1.5 hr at room temperature with: a) 1:15, 1:30, 1:50 or 1:80 fold molar excesses of NGyS; b) 1:15 or 1:30 fold molar excesses of NGy7; or c) 1:30 or 1:50 molar excesses of Gy5. After conjugation, each reaction mixture is loaded on a PD-10 column and eluted with PBS. Fractions containing protein are pooled together for each mixture. Absorbance and fluorescence spectra of the products are obtained and energy transfer efficiency assessed.
Streptavidin conjugates: The concentration of a dye solution is determined through absorbance readings of appropriate dye dilutions. Streptavidin is treated with a molar excess (e.g., 20 fold excess) of dye in sodium carbonate buffer (pH 9.0) for one hour. After conjugation, the mixture is purified on a PD-10 column using PBS as an eluent buffer, and 0.5 mL fractions are collected. Major fractions containing the streptavidin-dye conjugate are pooled together and absorbance and emission spectra are acquired.

`CCN1C(=CC=CC=CC=CC2=[N+](CCCCCC(=O)O)c3ccc(S(=O)(=O)O)cc3C2(C)C)C(C)(C)c2cc(S(=O)(=O)[O-])ccc21` [Cy7] showed an absorption maximum of 751.8 nm.
